Drawing on PubChem BioAssay AID1963439 (Molecular Pharmacology Branch, DTP, NCI, 2024), this text covers viability, T/C and IC50 for 14 molecules.

A word on the viability, T/C: it is the result in the treated group divided by that in the control group, in per cent. Usually IC50 stands for the concentration needed to halve the response being measured.

Where “and” joins values, the source holds several entries; their conditions need not be identical. Equal values may be shown once. Some results are limits rather than exact numbers.

For the assay, the system named is NCI-H196 complex spheroids with HUVEC/MSC, growth % T/C. In words: Anticancer human tumor NCI-H196 cell line growth inhibition [Asc].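 On all read-outs here: spheroids exposed to compound for 7 days before measurement.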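 On viability, T/C: 100% = DMSO vehicle control wells.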 Conditions: for viability, T/C: stronger effect = lower value. The method, then:
Multicellular complex tumor spheroid response to apoptosis pathway targeting inhibitors Alrizomadlin, Pelcitoclax, and Dasminapant in combination with a variety of drugs and investigational agents in selected tumor cell lines
The MDM2 inhibitor alrizomadlin, the Bcl-2/Bcl-xL inhibitor pelcitoclax, and the IAPs inhibitor dasminapant were evaluated both individually and in combination with standard of care and investigational anticancer small molecules within a complex spheroid model of solid tumors. . Complex spheroids include a stromal component modeled by human endothelial cells (HUVEC) and fibroblasts modeled by human mesenchymal stem cells (MSCs). The concentration ranges selected for each drug and investigational agent were based upon clinically achievable concentrations if the clinical Cmax of the agent was known.
Compounds. The drugs and investigational agents: alrizomadlin (APG-115; NSC831270), pelcitoclax (APG-1252; NSC835773), dasminapant (APG-1387;NSC834197), TAK-243 (NSC785004), copanlisib (NSC809693), olaparib (NSC753686), talazoparib (NSC767125), cobimetinib (NSC 768068), eltanexor (KPT-8602, NSC 794443), abemaciclib (NSC 768073), sotorasib (NSC818433), adagrasib (NSC 831453), MRTX-1133 (NSC 836407), Iadademestat (ORY1001, NSC 806812), and RMC-4630 (NSC839698), were obtained from the NCI Developmental Therapeutics Program Chemical Repository. The FDA-approved anticancer drug set is available from the Developmental Therapeutics Program at https://dtp.cancer.gov/organization/dscb/obtaining/available plates.htm. […] The stock solutions were prepared in dimethyl sulfoxide (DMSO, Sigma-Aldrich, St. Louis, MO, cat. D2650) at 800-fold the tested concentration and stored at -70 degrees C prior to their use. All drugs and investigational agents were tested over a range starting from a high concentration at or near the clinical Cmax and decreasing in half-log increments. If the clinical Cmax for an agent had not been determined, the highest concentration tested was 10 microM.
The patient-derived cancer (PDC) cell lines include five colon adenocarcinomas: 186277-243-T-J2-PDC, 616215-338-R-J1-PDC, 439559-082-T-J2-PDC, 463943-066-T-J2-PDC, and 519858-162-T-J1-PDC; three pancreatic carcinomas: 323965-272-R-J2-PDC, 521955-158-R6-J3-PDC, and 521955-158-R2-J5-PDC; two uterine sarcomas: 327498-152-R-J2-PDC and 993429-296-R-J1-PDC; two rhabdomyosarcomas: 755483-174-R-J1-PDC and 772245-204-R-J1-PDC; two soft tissue sarcomas: 126254-015-R-J1-PDC and 494315-158-R-J1-PDC; two malignant fibrous histiocytomas: 317291-083-R-J1-PDC and 596521-263-R-J1-PDC; two breast carcinomas: 171881-019-R-J1-PDC and 885512-296-R-J2-PDC; and one ovarian carcinoma: 6556581-035-R-J-PDC were obtained from the NCI PDMR, (https://pdmr.cancer.gov). The established cell lines HSSY-2 synovial sarcoma (RRID:CVCL 8719), SYO-1 synovial sarcoma (RRID:CVCL_7146), MPNST malignant peripheral neural sheath tumor were obtained from the Sloan Kettering Institute. The following established cell lines were purchased from the American Type Culture Collection (ATCC, Manassas, VA), Sor the received from the NCI repository:, PANC-1 pancreatic carcinoma (CRL-1469, RRID:CVCL_0480), OVCAR-5 ovarian carcinoma (RRID:CVCL_1628), OVCAR-8 ovarian carcinoma (RRID:CVCL_1629), , MCF-7 breast carcinoma (CRL-12584, RRID:CVCL_0031), MDA-MB-231 breast carcinoma (CRL-12532, RRID:CVCL_0062), NCI-H1876 small cell lung carcinoma (CRL-5902, RRID:CVCL_1503), NCI-H510A small cell lung carcinoma (HTB-184, RRID:CVCL_1565), NCI-H1417 (CRL-5869, RRID:CVCL_1469), and NCI-H196 small cell lung carcinoma (CRL-5823, RRID:CVCL_1509). Dr. Peter Houghton (Greehey Children's Cancer Research Institute, University of Texas Health Science Center, San Antonio, TX) provided Rh-18 rhabdomyosarcoma (RRID:CVCL_1659). Pooled donor human umbilical vein endothelial cells (HUVEC, Lonza, cat. CC-2519) and human mesenchymal stem cells (hMSC, Lonza, cat. PT-2501) were purchased from Lonza (Walkersville, MD).
Cell Culture. […]

The mark [1] stands for this setting: compound alone, run of 09/27/2022.

`C#Cc1c(F)ccc2cc(O)cc(-c3ncc4c(N5CC6CCC(C5)N6)nc(OCC56CCCN5CC(F)C6)nc4c3F)c12` (configuration not stated): the viability, T/C is, setting by setting: (compound 0.0316 µM) 94.6% and 101% and 103%; (compound 0.1 µM) 93.4% and 95.6% and 109%; (compound 0.316 µM) 93.4% and 92.8% and 118%; (compound 1 µM) 102% and 100% and 113%; (compound 3.16 µM) 101% and 92.6% and 108%; (compound 10 µM) 105% and 92.6% and 104%. In addition, the IC50 (curve of compound) is more than 10000 nM.

For the molecule `C=C(F)C(=O)N1CCN(c2nc(OCC3CCCN3C)nc3c2CCN(c2cccc4cccc(Cl)c24)C3)CC1CC#N` (configuration not stated), the viability, T/C by setting is: (compound 0.0316 µM) 95.2% and 99.4% and 108%; (compound 0.1 µM) 109% and 99.9% and 101%; (compound 0.316 µM) 100% and 102% and 113%; (compound 1 µM) 96.1% and 103% and 109%; (compound 3.16 µM) 94.2% and 103% and 111%. Besides, the IC50 (curve of compound) is > 10000 nM and 5950 nM.

On to `C=CC(=O)N1CCN(c2nc(=O)n(-c3c(C)ccnc3C(C)C)c3nc(-c4c(O)cccc4F)c(F)cc23)C(C)C1` (configuration not stated), for which the viability, T/C runs as follows: (compound 0.0316 µM) 92% and 102% and 106%; (compound 0.1 µM) 94.8% and 110% and 103%; (compound 0.316 µM) 103% and 93.4% and 109%; (compound 1 µM) 99.8% and 106% and 112%; (compound 3.16 µM) 97.6% and 103% (2×); (compound 10 µM) 95.1% and 114% and 91.3%. Besides, the IC50 (curve of compound) was more than 10000 nM.

Regarding `CCN1C(C(=O)NC23CCC(C(=O)O)(CC2)CC3)C(c2cccc(Cl)c2F)C2(C(=O)Nc3cc(Cl)ccc32)C12CCCCC2` (configuration not stated), the viability, T/C was 102% and 98.3% (compound 0.00949 µM); 102% [middle of 15 runs] (compound 0.03 µM); 106% [middle of 15 runs] (compound 0.0949 µM); 106% [middle of 15 runs] (compound 0.3 µM); 113% [middle of 15 runs] (compound 0.949 µM). The IC50 reads like this: under setting [1], more than 3000 nM; (curve of compound) more than 3000 nM.

On to `CCN1CCN(Cc2ccc(Nc3ncc(F)c(-c4cc(F)c5nc(C)n(C(C)C)c5c4)n3)nc2)CC1`, for which the viability, T/C reads like this: (compound 0.00316 µM) 106% and 104% and 96.7%; (compound 0.01 µM) 107% and 101% and 105%; (compound 0.0316 µM) 112% and 95.9% and 98.3%; (compound 0.1 µM) 103% and 110% and 106%; (compound 0.316 µM) 108% and 113% and 112%; (compound 1 µM) 120% and 116% and 119%. Also, the IC50 (curve of compound) is more than 1000 nM.

Consider `CNC(C)C(=O)NC1CN(S(=O)(=O)c2cccc(S(=O)(=O)N3CCC4CCC(C(=O)NC(c5ccccc5)c5ccccc5)N4C(=O)C(NC(=O)C(C)NC)C3)c2)CCC2CCC(C(=O)NC(c3ccccc3)c3ccccc3)N2C1=O` (configuration not stated), for which the viability, T/C (compound 0.00316 µM) was 38.2% and 43%; the viability, T/C (compound 0.01 µM) was 7.09% [middle of 14 runs]; the viability, T/C (compound 0.0316 µM) is 5.61% [middle of 14 runs]; the viability, T/C (compound 0.1 µM) is 3.73% [middle of 14 runs]; the viability, T/C (compound 0.316 µM) was 3.32% [middle of 13 runs]; the viability, T/C (compound 1 µM) is 2.97% [middle of 14 runs]. For the same molecule, the IC50 reads like this: (compound alone, run of 10/03/2022) less than 10 nM; (curve of compound) less than 3.16 nM.

For the molecule `COc1c(OCCCN2CCOCC2)ccc2c3n(c(=NC(=O)c4cnc(N)nc4)nc12)CCN3`, the viability, T/C runs as follows: (compound 0.00316 µM) 96% and 93% and 109%; (compound 0.01 µM) 91.4% and 90.6% and 101%; (compound 0.0316 µM) 94.1% and 100% and 108%; (compound 0.1 µM) 77.4% and 86.4% and 90.1%; (compound 0.316 µM) 67.9% and 69.6% and 69.5%; (compound 1 µM) 56.8% and 50.8% and 51%. Besides, under “curve of compound”, the IC50 is more than 1000 nM.

For `Cc1c(S(C)(=O)=O)c(-c2cc(F)cc(N3CCN(c4ccc(NS(=O)(=O)c5ccc(NC(CCN6CCC(C(=O)OCCCP(=O)(O)O)CC6)CSc6ccccc6)c(S(=O)(=O)C(F)(F)F)c5)cc4)CC3)c2)c(-c2ccc(Cl)cc2)n1C(C)C` (configuration not stated), the viability, T/C (compound 0.1 µM) was 94.5% [middle of 14 runs]; the viability, T/C (compound 0.316 µM) is 92.9% [middle of 14 runs]; the viability, T/C (compound 1 µM) was 91.4% [middle of 14 runs]; the viability, T/C (compound 3.16 µM) was 82.2% [middle of 14 runs]; the viability, T/C (compound 10 µM) was 75.3% [middle of 14 runs]. Further, the IC50 under setting [1] was more than 10000 nM.

`Cc1nc(N2CCC3(CC2)COC(C)C3N)c(CO)nc1Sc1ccnc(N)c1Cl` (configuration not stated): the viability, T/C is, setting by setting: (compound 0.00949 µM) 108% and 110% and 98.4%; (compound 0.03 µM) 142% and 106% and 101%; (compound 0.0949 µM) 106% and 99% and 102%; (compound 0.3 µM) 86.8% and 96.3% and 92.5%; (compound 0.949 µM) 43% and 63.5% and 67.1%; (compound 3 µM) 13.2% and 30.9% and 37.1%. In addition, for the setting “curve of compound”, the IC50 is 777 nM and 1550 nM and 1820 nM.

Regarding `Cn1ncnc1[C@H]1c2n[nH]c(=O)c3cc(F)cc(c23)N[C@@H]1c1ccc(F)cc1`, the viability, T/C was 97.9% and 107% and 106% (compound 0.000316 µM); 104% and 97.1% and 99.2% (compound 0.001 µM); 99.5% and 100% and 104% (compound 0.00316 µM); 104% and 102% and 98% (compound 0.01 µM); 100% (2×) and 96.9% (compound 0.0316 µM); 98.8% and 96% and 88.3% (compound 0.1 µM). Further, where the note is “curve of compound”, the IC50 was more than 100 nM.

As for `NC(=O)C(=Cn1cnc(-c2cc(C(F)(F)F)cc(C(F)(F)F)c2)n1)c1cncnc1`, the viability, T/C reads like this: (compound 0.000949 µM) 112% and 103% and 99.9%; (compound 0.003 µM) 101% and 99.4% and 88.3%; (compound 0.00949 µM) 79% and 71.1% and 58.7%; (compound 0.03 µM) 48.9% and 49.5% and 27.4%; (compound 0.0949 µM) 9.22% and 11.1% and 7.62%; (compound 0.3 µM) 6.01% and 7.26% and 5.35%. Also, the IC50 (curve of compound) was 25.1 nM and 23.9 nM and 13.1 nM.

Take `NC1CCC(NC2CC2c2ccccc2)CC1` (configuration not stated): the viability, T/C runs as follows: (compound 0.000316 µM) 103% and 108% and 100%; (compound 0.001 µM) 93.8% and 106% and 108%; (compound 0.00316 µM) 108% (2×) and 97.2%; (compound 0.01 µM) 93% and 98.4% and 103%; (compound 0.0316 µM) 99.4% and 105% and 114%; (compound 0.1 µM) 92.6% and 112% and 92.1%. Besides, the IC50 (curve of compound) was more than 100 nM.

Turning to `O=C(c1cc(Cc2n[nH]c(=O)c3ccccc23)ccc1F)N1CCN(C(=O)C2CC2)CC1`, the viability, T/C is, setting by setting: (compound 0.0316 µM) 94% and 96.9%; (compound 0.1 µM) 96.5% and 113%; (compound 0.316 µM) 101% and 94.4%; (compound 1 µM) 99.6% and 101%; (compound 3.16 µM) 96.3% and 102%; (compound 10 µM) 97.1% and 97.2%. In addition, the IC50 (curve of compound) was more than 10000 nM.

As for `O=C(c1ccc(F)c(F)c1Nc1ccc(I)cc1F)N1CC(O)([C@@H]2CCCCN2)C1`, the viability, T/C (compound 0.00316 µM) was 94.1% and 97.7% and 117%; the viability, T/C (compound 0.01 µM) is 116% and 99.4% and 109%; the viability, T/C (compound 0.0316 µM) is 98.1% and 97.8% and 122%; the viability, T/C (compound 0.1 µM) is 116% and 111% and 136%; the viability, T/C (compound 0.316 µM) is 132% and 119% and 145%; the viability, T/C (compound 1 µM) is 126% and 119% and 145%. Further, the IC50 (curve of compound) was more than 1000 nM.
